Source: the OligoGym collection
These antisense oligonucleotides have a phosphorothioate backbone; sugars and methylation of C are not fully specified.

Assays:
Conditions in all cases: ASO
PYGL = target: PYGL
ITGB3 = target: ITGB3
GNAI2 = target: GNAI2
SMAD2 = target: SMAD2
Further: test concentration or dose not given here.

CTTGACCAGCGTGAAGTGCA
remaining target (mRNA or protein) (fraction of control) (PYGL): 0.48

ACATACTGACATTCTCCC
remaining target (mRNA or protein) (fraction of control) (ITGB3): ≥ 1

ACAGTTCAAGAGCTGTCGCT
remaining target (mRNA or protein) (fraction of control) (PYGL): 0.39

TGGATGGAGAAATTCTTC
remaining target (mRNA or protein) (fraction of control) (ITGB3): 0.64

TTCAGGTCCTCAAACTTA
remaining target (mRNA or protein) (fraction of control) (GNAI2): 0.38

ACGGGCCAGCGCTCCAGGGC
remaining target (mRNA or protein) (fraction of control) (PYGL): 0.47

CCCATGTAAAATTCCAGAGA
remaining target (mRNA or protein) (fraction of control) (PYGL): 0.44

AGACAACTCTTCAGGGAG
remaining target (mRNA or protein) (fraction of control) (ITGB3): 0.62

ACCACATACAGGATGGAC
remaining target (mRNA or protein) (fraction of control) (ITGB3): ≥ 1

TGTCACTACCAACATGAC
remaining target (mRNA or protein) (fraction of control) (ITGB3): 0.32

TTCTGGTTGAGCTCCCATGC
remaining target (mRNA or protein) (fraction of control) (PYGL): 0.52

CTGCAAGTCCTGGGTTGCAG
remaining target (mRNA or protein) (fraction of control) (PYGL): 0.49

GGAAAGAGGAGAAAAGCG
remaining target (mRNA or protein) (fraction of control) (GNAI2): 0.65

TGCCACGTTCTCCACGCCCA
remaining target (mRNA or protein) (fraction of control) (PYGL): 0.18

AGGCATCTGGGCAGGTGG
remaining target (mRNA or protein) (fraction of control) (ITGB3): 0.9

GGTGTTGACAGTGTTATTCA
remaining target (mRNA or protein) (fraction of control) (PYGL): 0.56

CTGCTTGACGATGGTGCT
remaining target (mRNA or protein) (fraction of control) (GNAI2): 0.6

CATTCCTCCAGCCAATCT
remaining target (mRNA or protein) (fraction of control) (ITGB3): 0.6

GGCAGGCTTCAAACAGGG
remaining target (mRNA or protein) (fraction of control) (GNAI2): 0.52

GTGATGAGGAGTTTCCAG
remaining target (mRNA or protein) (fraction of control) (ITGB3): 0.98

AGTCCTTCAGGTTGTTCT
remaining target (mRNA or protein) (fraction of control) (GNAI2): 0.54

GCAGGCAGCAAGTCTCCCAA
remaining target (mRNA or protein) (fraction of control) (PYGL): 0.29

GGCCTGTGCGAACCCCTC
remaining target (mRNA or protein) (fraction of control) (GNAI2): 0.96

GAAGTCCTTGAATACTTTAG
remaining target (mRNA or protein) (fraction of control) (PYGL): 0.4

GAGACCTGGTTTGTTCAG
remaining target (mRNA or protein) (fraction of control) (SMAD2): 0.46

GCATCTCGTCCGCCTCCC
remaining target (mRNA or protein) (fraction of control) (ITGB3): 0.44

ACACAGACAAGACAATGT
remaining target (mRNA or protein) (fraction of control) (GNAI2): ≥ 1

CGTGAATGGCAAGATGGA
remaining target (mRNA or protein) (fraction of control) (SMAD2): 0.47

CGCCCTCAAAGCAGTGGA
remaining target (mRNA or protein) (fraction of control) (GNAI2): 0.61

GGTTCATCTCCTCGTCCT
remaining target (mRNA or protein) (fraction of control) (GNAI2): 0.64

CTTCCCTGACTCCCCAGC
remaining target (mRNA or protein) (fraction of control) (GNAI2): 0.3

TTCGATGGGATACCTGGA
remaining target (mRNA or protein) (fraction of control) (SMAD2): 0.99

CTCTTCTATATCCAATCCAA
remaining target (mRNA or protein) (fraction of control) (PYGL): 0.63

AAGCGGGTCACCTGGTCA
remaining target (mRNA or protein) (fraction of control) (ITGB3): ≥ 1

AGCTGCCTGGCGTCGTCC
remaining target (mRNA or protein) (fraction of control) (GNAI2): 0.34

AGTCCTCCTCTGAGCACT
remaining target (mRNA or protein) (fraction of control) (ITGB3): 0.55

CTTTAGAACGGATTTTCC
remaining target (mRNA or protein) (fraction of control) (ITGB3): ≥ 1

AAGTGCTTGGTATGGTAA
remaining target (mRNA or protein) (fraction of control) (SMAD2): 0.43

TACCTGCCATCCATCTCGGA
remaining target (mRNA or protein) (fraction of control) (PYGL): 0.15

GCATCCTTGCCAGTGTCC
remaining target (mRNA or protein) (fraction of control) (ITGB3): 0.47

ATCAGAGACATCCTTCTCAG
remaining target (mRNA or protein) (fraction of control) (PYGL): 0.33

AGATGCTGGTACATCCCC
remaining target (mRNA or protein) (fraction of control) (ITGB3): 0.4

CAGGTTCTGAGTAAGTAA
remaining target (mRNA or protein) (fraction of control) (SMAD2): 0.54

CCCGCCCGACCCACCCGA
remaining target (mRNA or protein) (fraction of control) (GNAI2): 0.62

TCACTGCTTTCTCACACC
remaining target (mRNA or protein) (fraction of control) (SMAD2): 0.08

ACACACACATAAACACAC
remaining target (mRNA or protein) (fraction of control) (ITGB3): ≥ 1

GGTAACACATTTAGTATT
remaining target (mRNA or protein) (fraction of control) (SMAD2): 0.48

TGTCCCATTTTGCTCTGG
remaining target (mRNA or protein) (fraction of control) (ITGB3): 0.53

GAACATAAGCCAGAAGGG
remaining target (mRNA or protein) (fraction of control) (GNAI2): 0.94

CACCCTTTCACAAAACTC
remaining target (mRNA or protein) (fraction of control) (SMAD2): 0.15

TGGAGCCAAACTTGGAGGCT
remaining target (mRNA or protein) (fraction of control) (PYGL): 0.32

GGGCGGGACTTCTCCCAAGG
remaining target (mRNA or protein) (fraction of control) (PYGL): 0.79

GCGAACCCCTCCCCTACG
remaining target (mRNA or protein) (fraction of control) (GNAI2): 0.71

TCCTTCGGCCTGAGGGAG
remaining target (mRNA or protein) (fraction of control) (ITGB3): 0.57

AGCTGCTTCTCCGCCGCC
remaining target (mRNA or protein) (fraction of control) (SMAD2): 0.27

GCCCCGAAGCCAATCCGC
remaining target (mRNA or protein) (fraction of control) (ITGB3): ≥ 1

CCCCTCCCTCATACACAG
remaining target (mRNA or protein) (fraction of control) (GNAI2): 0.62

CCCCATTCCCAGAGATACTC
remaining target (mRNA or protein) (fraction of control) (PYGL): 0.32

GCGCGAAGTAGTAGTCGCGG
remaining target (mRNA or protein) (fraction of control) (PYGL): 0.8

CCGCCCCGCCGCGCCAGGAG
remaining target (mRNA or protein) (fraction of control) (PYGL): ≥ 1

AACATTTGGACTTGGCTG
remaining target (mRNA or protein) (fraction of control) (GNAI2): 0.76

TCTCTGATAGTGGTAAGG
remaining target (mRNA or protein) (fraction of control) (SMAD2): 0.49

TGCTCCTCCAGACCCACC
remaining target (mRNA or protein) (fraction of control) (SMAD2): 0.01

AGAGATTGACTACATTTT
remaining target (mRNA or protein) (fraction of control) (ITGB3): 0.93

CCACGGGCTTTATGGTAA
remaining target (mRNA or protein) (fraction of control) (ITGB3): 0.63

CTTCCGTCCAATGCTATA
remaining target (mRNA or protein) (fraction of control) (ITGB3): 0.96

AGCTGCTGAGAGTCAGGC
remaining target (mRNA or protein) (fraction of control) (ITGB3): 0.22

GCGCTTATTCAGGTCCTC
remaining target (mRNA or protein) (fraction of control) (GNAI2): 0.33

AGCCCATCCCGCCGTCCG
remaining target (mRNA or protein) (fraction of control) (GNAI2): 0.91

CCACATTGGCCCCATCCATG
remaining target (mRNA or protein) (fraction of control) (PYGL): 0.19
